From PubChem BioAssay (NCI)
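In this assay, cells in 96-well plates receive the compound at five concentrations for 48 hours. Endpoints are linearly interpolated between the surrounding concentrations. GI50 is the concentration that inhibits growth by half. TGI is the concentration that stops growth completely.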

Each compound was assayed on MDA-MB-468 breast (assay: DTP human tumour cell line panel, 48 h).

First: O=C(CCCCN1CCOCC1)Nc1ccc(Cn2nnc3c2C(=O)c2nnn(Cc4ccc(NC(=O)CCCCN5CCOCC5)cc4)c2C3=O)cc1
Second: CCCCCCCC(=O)SCC/C=C/[C@@H]1CC(=O)NCc2cccc(n2)CN(Cc2ccc3ccccc3c2)CC(=O)N[C@@H](C(C)C)C(=O)O1
The GI50 of the first is 320-fold lower: 0.103 µM for the first, 33.3 µM for the second.

`O=C(N/N=C/c1c(Cl)cccc1Cl)c1cccnc1Nc1cccc(C(F)(F)F)c1` and `O=c1ccc2nc(C(F)(F)F)nn(-c3ccccc3)c-2c1` are within 1.5-fold of each other in GI50: 0.951 µM for the first, 1.06 µM for the second.

First: CC(=O)N1CCC(Nc2cc(C(=O)NC[C@H](O)CN3CCc4ccccc4C3)ncn2)CC1
Second: CC(C)C[C@H](NC(=O)Cn1ccc(Nc2ccccc2)cc1=O)B(O)O
The GI50 of the first is higher: > 100 µM for the first, 0.423 µM for the second.

`CN(C)CCCNCc1ccc(-c2ccc(F)c(Cl)c2)o1` and `CN(C)CCCn1c2c(c3ccc(-c4ccn[nH]4)cc3c1=O)C(=O)c1ccccc1-2` are within 1.5-fold of each other in GI50: 8.92 µM for the first, 7.84 µM for the second.

Going from `CC1(C)CC[C@]2(C(N)=O)CC[C@]3(C)C(=CC[C@@H]4[C@@]5(C)C/C(=C/c6cccnc6)C(=O)C(C)(C)[C@@H]5CC[C@]43C)[C@@H]2C1` to `Cc1ccc(NC2=N[C@]34CC(=O)CC[C@]3(C)[C@H]3CC[C@]5(C)C(=O)CC[C@H]5[C@@H]3C[C@@H]4S2)c(C)c1`, the GI50 falls from 3.2 µM to 1.93 µM (1.7-fold).

`C[C@]12CCC(=O)CC1CC[C@@H]1C2CC[C@@]2(C)C1CC[C@@H]2OC(=O)CC[Se][Se]CCC(=O)O[C@H]1CCC2[C@@H]3CCC4CC(=O)CC[C@]4(C)C3CC[C@@]21C` (stereo partly drawn) and `C=C1C(=O)O[C@H]2[C@H]1CC/C(COC(=O)CCCC(=O)OC/C1=C/CC[C@@]3(C)O[C@H]3[C@H]3OC(=O)C(=C)[C@@H]3CC1)=C\CC[C@@]1(C)O[C@@H]21` are within 1.5-fold of each other in GI50: 2.1 µM for the first, 1.51 µM for the second.

First: C[CH2][Pb]([CH2]C)([CH2]C)[O]C(=O)COc1ccccc1
Second: CCCC(=O)NC(c1ccc(N(CC)CC)cc1)c1cc(C)c2cccnc2c1O (stereo not drawn)
The GI50 of the first is 1.7-fold lower: 0.23 µM for the first, 0.386 µM for the second.

Compared with `ClCCn1cnc2c(SCc3ccccc3Cl)ncnc21`, `O=Cc1cn(Cc2ccc(Cl)cc2)c2ccccc12` is 440-fold lower in GI50: 9.76 µM for the first, 0.022 µM for the second.

First: O=CN/N=C/c1ccc(Cl)c([N+](=O)[O-])c1
Second: O=C(Nc1cccc(Cl)c1)Nc1nccs1
The GI50 of the first is 70-fold lower: 0.127 µM for the first, 8.83 µM for the second.

Going from `OCc1ccc(N(Cc2ccc(F)cc2)CC2CC2)cc1Cl` to `CCCN(CCC)c1ccc(CO)c(Cl)c1`, the GI50 rises from 0.0189 µM to 0.0469 µM (2.5-fold).

Going from `N#Cc1c(-c2ccc(Cl)cc2)nc(SCc2ccccc2)nc1N1CCNCC1` to `N#CC1=C(N)Oc2c(ccc3ccccc23)C1c1cccs1` (stereo not drawn), the GI50 falls from 1.71 µM to 0.0375 µM (46-fold).

First: O=S(=O)(Nc1ccc(Cl)cc1)c1ccc(-c2cnc(C3CC3)o2)cc1
Second: Cc1ccc(Cl)cc1-c1nc(N)nc(Nc2ccc(Br)cc2)n1
The GI50 of the first is 2.1-fold higher: 0.368 µM for the first, 0.175 µM for the second.

First: Cc1cc(Nc2ccc3c(c2)OCO3)c2cc3c(cc2n1)OCO3
Second: Cc1cc(N(CCNc2ccnc3cc(Cl)ccc23)Cc2cccs2)nc(Cl)n1
The GI50 of the first is 2.4-fold lower: 0.519 µM for the first, 1.22 µM for the second.

First: CCOC(=O)/C=C1/SC(N2CCCCC2)C(=O)N1CC (stereo not drawn)
Second: C=C1C(=O)O[C@H]2[C@H]1CC/C(COC(=O)/C=C\C(=O)NCc1ccc(Cn3c(=O)sn(CCCI)c3=O)cc1)=C\CC[C@@]1(C)O[C@@H]21
The GI50 of the first is higher: > 100 µM for the first, 0.519 µM for the second.

`Oc1cccc(-c2nc(-c3n[nH]c(=S)n3-c3ccccc3)cc3c2[nH]c2ccccc23)c1` and `O=C(Nc1ccc(-c2nc(-c3cccc(O)c3)c(-c3ccnc(Br)c3)[nH]2)cc1)c1ccccc1` are within 1.5-fold of each other in GI50: 2.54 µM for the first, 1.91 µM for the second.

First: C[n+]1c2ccccc2c(Nc2ccc(N3CCCCC3)cc2)c2[nH]c3ccccc3c21
Second: C(=C1c2ccccc2-c2ccccc21)c1ccncc1
The GI50 of the first is 15-fold lower: 0.153 µM for the first, 2.28 µM for the second.

First: N#Cc1c(Br)n(C2OC(CO)C(O)C2O)c2ncn3ccnc3c12 (stereo not drawn)
Second: O=C1N[C@@H]2[C@@H](O)[C@@H](O)[C@H](O)C[C@H]2c2cc3c(c(O)c21)OCO3
The GI50 of the first is 610-fold higher: 35.2 µM for the first, 0.058 µM for the second.

Compared with `CCOC(=O)c1nnn(-c2no[n+]([O-])c2-c2ccc(OC)cc2)c1COc1cccc2cccnc12`, `Cc1cc(Oc2ccccc2)ccc1Nc1ncnc2ccc(-c3cnc(Cl)c(NS(C)(=O)=O)c3)cc12` is 2.5-fold lower in GI50: 2.61 µM for the first, 1.04 µM for the second.

Going from `C=CC(=O)N1C[C@H](COc2nc(Nc3cnn(C)c3)nc3[nH]cc(Cl)c23)[C@@H](OC)C1` to `COc1cc(-c2csc(NC(=O)Nc3ccc(Cl)c(C(F)(F)F)c3)n2)cc(OC)c1OC`, the GI50 rises from 0.445 µM to 0.775 µM (1.7-fold).

Compared with `Cc1nn(CCO)c(C)c1N=[N+]([O-])c1c(C)nn(CCO)c1C`, `C=C1C(=O)O[C@H]2[C@H]1CC/C(COC(=O)CCSSCCC(=O)OC/C1=C/CC[C@@]3(C)O[C@H]3[C@H]3OC(=O)C(=C)[C@@H]3CC1)=C\CC[C@@]1(C)O[C@@H]21` is 5.2-fold lower in GI50: 2.84 µM for the first, 0.543 µM for the second.

For `O=C(Nc1ccc([As]=[As]c2ccc(NC(=O)c3ccccc3)cc2)cc1)c1ccccc1` (stereo not drawn), the GI50 was 0.152 µM.

Compared with `O=C(CCCCN1CCOCC1)Nc1ccc(Cn2nnc3c2C(=O)c2nnn(Cc4ccc(NC(=O)CCCCN5CCOCC5)cc4)c2C3=O)cc1`, `CCCCCCCC(=O)SCC/C=C/[C@@H]1CC(=O)NCc2cccc(n2)CN(Cc2ccc3ccccc3c2)CC(=O)N[C@@H](C(C)C)C(=O)O1` is higher in TGI: 0.261 µM for the first, > 100 µM for the second.

First: O=C(N/N=C/c1c(Cl)cccc1Cl)c1cccnc1Nc1cccc(C(F)(F)F)c1
Second: O=c1ccc2nc(C(F)(F)F)nn(-c3ccccc3)c-2c1
The TGI of the first is 3.1-fold higher: 9.27 µM for the first, 2.98 µM for the second.

Going from `CC(=O)N1CCC(Nc2cc(C(=O)NC[C@H](O)CN3CCc4ccccc4C3)ncn2)CC1` to `CC(C)C[C@H](NC(=O)Cn1ccc(Nc2ccccc2)cc1=O)B(O)O`, the TGI falls from > 100 µM to 5.88 µM.

`CN(C)CCCNCc1ccc(-c2ccc(F)c(Cl)c2)o1` and `CN(C)CCCn1c2c(c3ccc(-c4ccn[nH]4)cc3c1=O)C(=O)c1ccccc1-2` are within 1.5-fold of each other in TGI: 23.4 µM for the first, 24 µM for the second.

First: CC1(C)CC[C@]2(C(N)=O)CC[C@]3(C)C(=CC[C@@H]4[C@@]5(C)C/C(=C/c6cccnc6)C(=O)C(C)(C)[C@@H]5CC[C@]43C)[C@@H]2C1
Second: Cc1ccc(NC2=N[C@]34CC(=O)CC[C@]3(C)[C@H]3CC[C@]5(C)C(=O)CC[C@H]5[C@@H]3C[C@@H]4S2)c(C)c1
The TGI of the first is higher: > 100 µM for the first, 3.93 µM for the second.

`C[C@]12CCC(=O)CC1CC[C@@H]1C2CC[C@@]2(C)C1CC[C@@H]2OC(=O)CC[Se][Se]CCC(=O)O[C@H]1CCC2[C@@H]3CCC4CC(=O)CC[C@]4(C)C3CC[C@@]21C` (stereo partly drawn) and `C=C1C(=O)O[C@H]2[C@H]1CC/C(COC(=O)CCCC(=O)OC/C1=C/CC[C@@]3(C)O[C@H]3[C@H]3OC(=O)C(=C)[C@@H]3CC1)=C\CC[C@@]1(C)O[C@@H]21` are within 1.5-fold of each other in TGI: 5.06 µM for the first, 5.3 µM for the second.

Compared with `C[CH2][Pb]([CH2]C)([CH2]C)[O]C(=O)COc1ccccc1`, `CCCC(=O)NC(c1ccc(N(CC)CC)cc1)c1cc(C)c2cccnc2c1O` (stereo not drawn) is 3-fold higher in TGI: 0.659 µM for the first, 1.96 µM for the second.

First: ClCCn1cnc2c(SCc3ccccc3Cl)ncnc21
Second: O=Cc1cn(Cc2ccc(Cl)cc2)c2ccccc12
The TGI of the first is 840-fold higher: 67.6 µM for the first, 0.0801 µM for the second.

Compared with `O=CN/N=C/c1ccc(Cl)c([N+](=O)[O-])c1`, `O=C(Nc1cccc(Cl)c1)Nc1nccs1` is 21-fold higher in TGI: 4.26 µM for the first, 89.5 µM for the second.

Going from `OCc1ccc(N(Cc2ccc(F)cc2)CC2CC2)cc1Cl` to `CCCN(CCC)c1ccc(CO)c(Cl)c1`, the TGI rises from 0.0686 µM to 0.199 µM (2.9-fold).

First: N#Cc1c(-c2ccc(Cl)cc2)nc(SCc2ccccc2)nc1N1CCNCC1
Second: N#CC1=C(N)Oc2c(ccc3ccccc23)C1c1cccs1 (stereo not drawn)
The TGI of the first is 4-fold lower: 3.46 µM for the first, 13.7 µM for the second.

First: O=S(=O)(Nc1ccc(Cl)cc1)c1ccc(-c2cnc(C3CC3)o2)cc1
Second: Cc1ccc(Cl)cc1-c1nc(N)nc(Nc2ccc(Br)cc2)n1
The TGI of the first is 9.8-fold higher: 6.01 µM for the first, 0.614 µM for the second.

First: Cc1cc(Nc2ccc3c(c2)OCO3)c2cc3c(cc2n1)OCO3
Second: Cc1cc(N(CCNc2ccnc3cc(Cl)ccc23)Cc2cccs2)nc(Cl)n1
The TGI of the first is 5.6-fold higher: 15 µM for the first, 2.7 µM for the second.

First: CCOC(=O)/C=C1/SC(N2CCCCC2)C(=O)N1CC (stereo not drawn)
Second: C=C1C(=O)O[C@H]2[C@H]1CC/C(COC(=O)/C=C\C(=O)NCc1ccc(Cn3c(=O)sn(CCCI)c3=O)cc1)=C\CC[C@@]1(C)O[C@@H]21
The TGI of the first is higher: > 100 µM for the first, 1.19 µM for the second.

Going from `Oc1cccc(-c2nc(-c3n[nH]c(=S)n3-c3ccccc3)cc3c2[nH]c2ccccc23)c1` to `O=C(Nc1ccc(-c2nc(-c3cccc(O)c3)c(-c3ccnc(Br)c3)[nH]2)cc1)c1ccccc1`, the TGI falls from 7.41 µM to 4.74 µM (1.6-fold).

Going from `COc1ccc2c(c1)NC(=O)CN2c1nc(NC2CC2)nc2ccccc12` to `C[n+]1c2ccccc2c(Nc2ccc(N3CCCCC3)cc2)c2[nH]c3ccccc3c21`, the TGI falls from 3.75 µM to 0.401 µM (9.4-fold).

First: C(=C1c2ccccc2-c2ccccc21)c1ccncc1
Second: O=C(Nc1ccc([As]=[As]c2ccc(NC(=O)c3ccccc3)cc2)cc1)c1ccccc1 (stereo not drawn)
The TGI of the first is 20-fold higher: 6.64 µM for the first, 0.324 µM for the second.

First: N#Cc1c(Br)n(C2OC(CO)C(O)C2O)c2ncn3ccnc3c12 (stereo not drawn)
Second: O=C1N[C@@H]2[C@@H](O)[C@@H](O)[C@H](O)C[C@H]2c2cc3c(c(O)c21)OCO3
The TGI of the first is higher: > 100 µM for the first, 0.298 µM for the second.

First: CCOC(=O)c1nnn(-c2no[n+]([O-])c2-c2ccc(OC)cc2)c1COc1cccc2cccnc12
Second: Cc1cc(Oc2ccccc2)ccc1Nc1ncnc2ccc(-c3cnc(Cl)c(NS(C)(=O)=O)c3)cc12
The TGI of the first is 2.4-fold higher: 7.99 µM for the first, 3.33 µM for the second.

`C=CC(=O)N1C[C@H](COc2nc(Nc3cnn(C)c3)nc3[nH]cc(Cl)c23)[C@@H](OC)C1` and `COc1cc(-c2csc(NC(=O)Nc3ccc(Cl)c(C(F)(F)F)c3)n2)cc(OC)c1OC` are within 1.5-fold of each other in TGI: 2.59 µM for the first, 3.85 µM for the second.

First: Cc1nn(CCO)c(C)c1N=[N+]([O-])c1c(C)nn(CCO)c1C
Second: C=C1C(=O)O[C@H]2[C@H]1CC/C(COC(=O)CCSSCCC(=O)OC/C1=C/CC[C@@]3(C)O[C@H]3[C@H]3OC(=O)C(=C)[C@@H]3CC1)=C\CC[C@@]1(C)O[C@@H]21
The TGI of the first is 6.9-fold higher: 15.8 µM for the first, 2.28 µM for the second.
